Each block holds one compound with its values, some of them ahead of it.
What was measured:
RIF tumors = test: In vivo photosensitizing (PDT) efficacy, tumor response in C3H mice transplanted with RIF tumors; design: species or system mouse
Method: In brief, C3H/HEJ mice were subjected to intradermal injection with 2×10^5 RIF cells in […] HBSS w/o Ca^+2 and magnesium, into the flank and allowed to grow until they were 4-5 mm in diameter. The day before tumors were treatment size, the mice were injected with variable doses of substantially pure photosensitizers (1.0 mg/kg, 0.4 mg/kg). […] The mice (6 mice/group in two groups) were checked daily, the tumors were measured using two orthogonal measurements L and W (perpendicular to L) and the volumes were calculated using the formula V=L×W^2/2 and recorded. Mice were considered cured if there was no palpable tumor at 90 days post-PDT treatment.
In the control group, six mice were exposed to light without injecting any photosensitizer.
The in vivo photosensitizing efficacy of bacteriochlorins 16 and 18 was determined in C3H mice (5 mice/group) at variable concentration up to 1.0 μmol/Kg.

[1] = Stability of Schiff base 17 / amine 18 (in vivo reflectance spectroscopy); details: 17: in vivo, converted into acetyl analog 15, determined by in vivo reflectance spectroscopy
Method: For example, when the reaction was performed at elevated temperature, the N-fluorinated derivative 15 and the corresponding Schiff base 17 (obtained from the reaction of the 3-acetyl group with an amine) was isolated in almost equal ratio. However, at low temperature, 3-acetyl-N-substituted-bacteriopurpurinimide 15 was isolated as a major product. Bacteriochlorin 15 on reaction with sodium borohydride and then with HBr gas followed by a reaction with n-butyl alcohol produced the corresponding butyl ether derivative 16. […] However, reduction of 17 with sodium borohydride at room temperature produced stable amine 18. See Scheme 2.

[2] = Electronic absorption spectra in dichloromethane; assay type: physicochemical
Method: The electronic absorption spectra of PHOTOFRIN® (a porphyrin analog), HPPH (a chlorin bearing a five-membered isocyclic ring) and the purpurinimide 9 (a chlorin with an expanded, six-membered fused imide ring) were measured in dichloromethane at the same molar concentrations.

[3] = dose 1.0 μmol/Kg, day 90, C3H mice

stability [1]: stable
Compound: CCC1c2cc3[nH]c4c(c5nc(cc6[nH]c(cc(n2)C1C)c(C(C)NCc1cc(C(F)(F)F)cc(C(F)(F)F)c1)c6C)[C@@H](C)[C@@H]5CCC(=O)OC)C(=O)N(Cc1cc(C(F)(F)F)cc(C(F)(F)F)c1)C(=O)c4c3C (stereo partly shown) [compound 18]
mice tumor free (RIF tumors; [3]): 3/5 | tumor response (RIF tumors; [3]): 60%

red-shift compared with PHOTOFRIN [2]: 30 nm | ε (long wavelength absorption) ([2]; same molar concentrations): 45,000 | λmax (long wavelength absorption) ([2]; same molar concentrations): 660 nm
Compound: HPPH

Compound: purpurin-18-N-butyl-3-O-{1′-3″,5″-bis(trifluoromethyl)-benzyl ether}imide [compound 12]
tumor response (RIF tumors; dose 0.4 mg/kg, light 706 nm, 135 J/cm2 at 24 hours post-injection, day 90, C3H/HeJ mice): 66%

— patent USRE43274E1, “Fluorinated photosensitizers related to chlorins and bacteriochlorins for photodynamic therapy” (Health Research, Inc., priority 2002, dated 2012)
